Two compounds from patent US12661313B2, “Cosmetic composition” (MARY KAY INC., priority 2019, dated 2026) can be followed below.

In experiment [1] the target is T1, MMP-3 (Homo sapiens, UniProt P08254).
T1 construct: purchased BioMol International AK-400
Briefly: Matrix Metalloproteinase 3 Enzyme Activity (MMP-3) Assay (BioMol AK-400). It counts as biochemical. As to conditions: thiopeptide chromogenic substrate, absorbance 412 nm. The text has this:
(§1) MMPs are extracellular proteases that play a role in many normal and disease states by virtue of their broad substrate specificity. MMP-3 substrates include collagens, fibronectins, and laminin; while MMP-9 substrates include collagen VII, fibronectins and laminin. Colorimetric Drug Discovery kits from BioMol International for MMP-3 (AK-400) and MMP-9 (AK-410) were used to measure protease activity of MMPs using a thiopeptide as a chromogenic substrate (Ac-PLG-[2-mercapto-4-methyl-pentanoyl]-LG-OC2H5)5,6. The MMP cleavage site peptide bond is replaced by a thioester bond in the thiopeptide. Hydrolysis of this bond by an MMP produces a sulfhydryl group, which reacts with DTNB [5,5′-dithiobis(2-nitrobenzoic acid), Ellman's reagent] to form 2-nitro-5-thiobenzoic acid, which can be detected by its absorbance at 412 nm (ε=13,600 M−1 cm−1 at pH 6.0 and above 7). It was determined that Rosmarinus officinalis leaf extract inhibited MMP-3 by 40%, Morus alba fruit extract inhibited by 29%, and tetrahexyldecyl ascorbate inhibited by 38%. It was determined that Rosmarinus officinalis leaf extract inhibited MMP-9 by 61%, Morus alba fruit extract inhibited by 84%, tetrahexyldecyl ascorbate inhibited by 11%, and Acmella oleracea extract inhibited by 80%.

The subject of experiment [2] is IL-6. The experiment in a line: Inhibition of IL-6.
Experiment [3] concerns procollagen-1. The experiment in a line: Collagen Stimulation Assay (PICP ELISA, Takara #MK101). It is filed as cell-based. Particulars: normal human adult epidermal fibroblasts treated 3 days, culture medium. The text has this: Collagens (types I, II, III, IV and V) are synthesized as precursor molecules called procollagens. These precursor molecules contain additional peptide sequences, usually called “propeptides”, at both the amino-terminal and the carboxy-terminal ends. During cellular expression and secretion, procollagens are assembled in the trimeric form and then cleaved at specific N- and C-terminal sites by specific endopeptidases, generating three fragments: procollagen-1 N-terminal propeptide (PINP), Type I collagen, and procollagen-1 carboxy-terminal propeptide (PICP).
The function of the propeptides is to facilitate the winding of procollagen molecules into a triple-helical conformation within the endoplasmic reticulum. […]
Quantitative detection of PICP in fibroblast cell extracts and culture supernatants was performed with an enzyme immunoassay kit (e.g., Takara #MK101) to assess the effects of the ingredients on the synthesis of PICP in skin. […] The assay employed the quantitative sandwich enzyme immunoassay technique whereby a monoclonal antibody specific for procollagen peptide was pre-coated onto a microplate. […] Color development was stopped and the intensity of the color at 450 nm was measured using a microplate reader. […]
(In an ELISA, binding on a coated surface is turned into a signal by an enzyme label.)

The target of experiment [4] is T2, MMP-9 (Homo sapiens, UniProt P14780).
T2 construct: purchased BioMol International AK-410
T2 sequence (P14780 107-444 limits assumed): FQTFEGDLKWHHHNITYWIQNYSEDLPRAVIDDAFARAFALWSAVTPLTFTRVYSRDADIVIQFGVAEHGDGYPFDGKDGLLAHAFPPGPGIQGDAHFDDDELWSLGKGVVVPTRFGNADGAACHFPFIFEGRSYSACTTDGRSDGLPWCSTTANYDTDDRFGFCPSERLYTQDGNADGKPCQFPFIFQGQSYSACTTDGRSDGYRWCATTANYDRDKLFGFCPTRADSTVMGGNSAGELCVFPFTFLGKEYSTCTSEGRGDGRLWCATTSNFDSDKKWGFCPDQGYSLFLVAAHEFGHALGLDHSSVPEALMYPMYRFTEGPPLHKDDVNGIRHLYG
Briefly: Matrix Metalloproteinase 9 Enzyme Activity (MMP-9) Assay (BioMol AK-410). It counts as biochemical. As to conditions: thiopeptide chromogenic substrate, absorbance 412 nm.
Excerpt: as §1

Experiment [5] concerns TNF-α. The experiment in a line: Tumor Necrosis Factor Alpha (TNF-α) Assay (ELISA, PMA-treated keratinocytes). It is filed as cell-based. As to conditions: normal human adult keratinocytes, PMA 10 ng/ml, 6 hours. The text has this:
Tumor Necrosis Factor Alpha (TNF-α) Assay: Rosmarinus officinalis leaf extract and saccharide isomerate inhibit TNF-α activity. The prototype ligand of the TNF superfamily, TNF-α, is a pleiotropic cytokine that plays a central role in inflammation. Increase in its expression is associated with an up regulation in pro-inflammatory activity. The bioassay used analyzed the effect of Rosmarinus officinalis leaf extract and saccharide isomerate on the production of TNF-α by human epidermal keratinocytes. The endpoint of this assay was a spectrophotometric measurement that reflects the presence of TNF-α and cellular viability. The assay employed the quantitative sandwich enzyme immunoassay technique whereby a monoclonal antibody specific for TNF-α had been pre-coated onto a microplate.
Standards and samples were pipetted into wells of the microplate and any TNF-α present was bound by the immobilized antibody. After washing away any unbound substances, an enzyme-linked polyclonal antibody specific for TNF-α was added to the wells. Following a wash to remove any unbound antibody-enzyme reagent, a substrate solution was added to the wells and color developed in proportion to the amount of TNF-α bound in the initial step using a microplate reader for detection at 450 nm. The color development can be stopped and the intensity of the color was measured. […]

T1 sequence (P08254 100-272 limits assumed): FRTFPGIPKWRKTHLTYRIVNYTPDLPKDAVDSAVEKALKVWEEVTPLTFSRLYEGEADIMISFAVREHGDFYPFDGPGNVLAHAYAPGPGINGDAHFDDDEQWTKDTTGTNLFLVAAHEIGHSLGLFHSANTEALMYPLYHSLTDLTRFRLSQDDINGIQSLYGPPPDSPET

Regarding `CCCCCCCCC(CCCCCC)C(=O)OC[C@H](OC(=O)C(CCCCCC)CCCCCCCC)[C@H]1OC(=O)C(OC(=O)C(CCCCCC)CCCCCCCC)=C1OC(=O)C(CCCCCC)CCCCCCCC` (some centres unmarked) [Tetrahexyldecyl ascorbate], the “Inhibit MMP-3, Change (%)” value in experiment [1] came out at 38%. For the same compound, in experiment [2], the “Inhibit IL-6, Change (%)” value worked out at 38%. Also, the “Increase Collagen Expression (procollagen-1), Change (%)” value in experiment [3] worked out at 50%. Besides, in experiment [4], the “Inhibit MMP-9, Change (%)” value amounted to 11%.
As for Saccharide isomerate, the “Inhibit TNF-α, Change (%)” value in experiment [5] amounted to 88%.
